Measured values: patent publication US8933113B2 (Merck Sharp & Dohme Corp., priority 2011, dated 2015)

Molecular target: T1, full-length human Mineralocorticoid Receptor (MR) (Homo sapiens, UniProt P08235)
T1 construct: host or cells: PathHunter CHO-K1 cells
T1 sequence (P08235 1-984): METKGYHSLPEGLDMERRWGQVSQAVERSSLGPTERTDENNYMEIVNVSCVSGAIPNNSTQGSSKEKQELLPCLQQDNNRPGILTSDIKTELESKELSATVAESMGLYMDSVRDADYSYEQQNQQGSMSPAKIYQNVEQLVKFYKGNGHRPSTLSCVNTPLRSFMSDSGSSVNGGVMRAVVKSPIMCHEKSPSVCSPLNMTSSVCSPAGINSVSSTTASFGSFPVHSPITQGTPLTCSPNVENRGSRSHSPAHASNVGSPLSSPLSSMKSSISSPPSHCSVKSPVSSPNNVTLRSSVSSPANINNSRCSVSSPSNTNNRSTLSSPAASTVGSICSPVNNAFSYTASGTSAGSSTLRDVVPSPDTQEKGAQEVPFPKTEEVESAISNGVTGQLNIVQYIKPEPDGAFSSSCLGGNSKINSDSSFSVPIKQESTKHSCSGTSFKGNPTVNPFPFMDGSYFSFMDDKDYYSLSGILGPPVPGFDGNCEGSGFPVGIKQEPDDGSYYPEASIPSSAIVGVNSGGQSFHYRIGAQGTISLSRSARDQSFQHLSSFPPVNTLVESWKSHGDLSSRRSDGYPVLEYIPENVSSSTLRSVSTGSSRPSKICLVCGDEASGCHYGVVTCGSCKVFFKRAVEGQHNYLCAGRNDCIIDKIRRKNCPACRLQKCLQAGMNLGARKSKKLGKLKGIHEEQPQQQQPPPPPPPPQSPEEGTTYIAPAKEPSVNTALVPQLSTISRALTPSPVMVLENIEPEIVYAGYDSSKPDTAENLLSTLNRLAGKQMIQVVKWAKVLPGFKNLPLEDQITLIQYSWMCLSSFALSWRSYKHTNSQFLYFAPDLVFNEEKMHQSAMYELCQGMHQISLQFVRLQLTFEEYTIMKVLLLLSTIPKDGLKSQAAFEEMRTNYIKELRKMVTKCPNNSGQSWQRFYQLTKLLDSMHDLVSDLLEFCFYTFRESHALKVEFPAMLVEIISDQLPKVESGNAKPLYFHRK
Experiment: human MR NH Pro assay (PathHunter Protein:Protein interaction assay), MR antagonist activity
Assay type: cell-based
Conditions: PathHunter CHO-K1 cells overexpressing human MR; aldosterone about 0.3 nM; 6 hours at 37° C.; luminescence; read-out: Primary Assay IP rating (IP = inflection point for a given dose-response titration curve)
In short: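 PathHunter enzyme-complementation assay in cells of full-length human MR recruitment of a coactivator peptide, run in antagonist mode against aldosterone at about 0.3 to 1.0 nM final. Compounds are in a 10-point, 1:3 series from a 4.4 mM top. Incubation is 6 h at 37° C, then detection reagent for 1 h at RT, with a luminescence read-out.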

For `CCC(C#CC#N)(c1ccc(Cl)cc1)n1ccc2c(NS(C)(=O)=O)cccc21` (single isomer, unassigned) [Compound 155, N-(1-(3-(4-chlorophenyl)-1-cyanopent-1-yn-3-yl)-1H-indol-4-yl)methanesulfonamide], which IC50 is on record?
Its IC50 is under 0.1 µM.

With `CC(C)(C)OC(=O)C(c1ccc(Cl)cc1)n1ccc2c(NS(C)(=O)=O)cccc21` (stereo not shown) [Compound 18, tert-butyl (4-chlorophenyl){4-[(methylsulfonyl)amino]-1H-indol-1-yl}acetate] as the molecule, how does the IC50 read?
Its IC50 is 0.5 to 5 µM.

Which IC50 does the source give for `CCC(CCC#N)(c1ccc(Cl)cc1)n1ccc2c(NS(C)(=O)=O)cc(F)cc21` (single isomer, unassigned) [Compound 142, N-(1-(3-(4-chlorophenyl)-1-cyanopentan-3-yl)-6-fluoro-1H-indol-4-yl)methanesulfonamide] here?
The IC50 was under 0.1 µM.

With `CS(=O)(=O)Nc1cccc2c1ccn2C(c1ccc(Cl)cc1)c1nc(-c2ccccc2)no1` (stereo not shown) [Compound 63, N-{1-[(4-chlorophenyl)(3-phenyl-1,2,4-oxadiazol-5-yl)methyl]-1H-indol-4-yl}methanesulfonamide] as the molecule, how does the IC50 read?
Its IC50 is 0.5 to 5 µM.

For `CCC(CC#N)(c1ccc(Cl)cc1)n1ncc2c(NS(C)(=O)=O)cccc21` (single isomer, unassigned) [Compound 123, N-(1-(2-(4-chlorophenyl)-1-cyanobutan-2-yl)-1H-indazol-4-yl)methanesulfonamide], which IC50 is on record?
Its IC50 is under 0.1 µM.

`CCC(/C=C/C(=O)OC)(c1ccc(Cl)cc1)n1ncc2c(NS(C)(=O)=O)cccc21` (stereo not shown) [Compound 171, (E)-methyl 4-(4-chlorophenyl)-4-(4-(methylsulfonamido)-1H-indazol-1-yl)hex-2-enoate] was tested. Which IC50 did it give?
The IC50 was 0.1 to 0.5 µM.

`CCC(CCC(C)=O)(c1ccc(Cl)cc1)n1ncc2c(NS(C)(=O)=O)cccc21` (stereo not shown) [Compound 172, N-(1-(3-(4-chlorophenyl)-6-oxoheptan-3-yl)-1H-indazol-4-yl)methanesulfonamide] was tested. Which IC50 did it give?
The IC50 was under 0.1 µM.

For `CCC(CCO)(c1ccc(Cl)cc1)n1ccc2c(NS(C)(=O)=O)cccc21` (single isomer, unassigned) [Compound 161, N-(1-(3-(4-Chlorophenyl)-1-hydroxypentan-3-yl)-1H-indol-4-yl)methanesulfonamide], which IC50 is on record?
The IC50 was under 0.1 µM.

With `CCC(CCSC)(c1ccc(Cl)cc1)n1ccc2c(NS(C)(=O)=O)cccc21` (stereo not shown) [Compound 166, N-(1-(3-(4-chlorophenyl)-1-(methylthio)pentan-3-yl)-1H-indol-4-yl)methanesulfonamide] as the molecule, how does the IC50 read?
The IC50 was under 0.1 µM.

How did the IC50 turn out when `CC[C@](C(=O)NCc1ccccc1)(c1ccc(Cl)cc1)n1ccc2c(NS(C)(=O)=O)cccc21` [Compound 43, (R)—N-benzyl-2-(4-chlorophenyl)-2-{4-[(methylsulfonyl)amino]-1H-indol-1-yl}butanamide] was run?
The IC50 was 0.5 to 5 µM.

For `CCC(C(=O)NCCOC)(c1ccc(Cl)cc1)n1ccc2c(NS(C)(=O)=O)cccc21` (stereo not shown) [Compound 42, 2-(4-chlorophenyl)-N-(2-methoxyethyl)-2-{4-[(methylsulfonyl)amino]-1H-indol-1-yl}butanamide], which IC50 is on record?
The IC50 was 0.5 to 5 µM.

`CCC(c1ccc(Cl)cc1)(n1ccc2c(NS(C)(=O)=O)cccc21)C(C)(C)O` (single isomer, unassigned) [Compound 91, N-(1-(3-(4-chlorophenyl)-2-hydroxy-2-methylpentan-3-yl)-1H-indol-4-yl)methane sulfonamide] was tested. Which IC50 did it give?
Its IC50 is under 0.1 µM.

How did the IC50 turn out when `CCC(C(C)=O)(c1ccc(Cl)cc1)n1ncc2c(NS(C)(=O)=O)cccc21` (single isomer, unassigned) [Compound 101, N-(1-(3-(4-chlorophenyl)-2-oxopentan-3-yl)-1H-indazol-4-yl)methanesulfonamide] was run?
The IC50 was 0.1 to 0.5 µM.

How did the IC50 turn out when `CCC(CCC#N)(c1ccc(Cl)cc1)n1ncc2c(NS(C)(=O)=O)cccc21` (single isomer, unassigned) [Compound 137, N-(1-(3-(4-chlorophenyl)-1-cyanopentan-3-yl)-1H-indazol-4-yl)methanesulfonamide] was run?
The IC50 was 0.1 to 0.5 µM.

With `CCC(CCC#N)(c1ccc(Cl)cc1)n1ncc2c(NS(C)(=O)=O)cccc21` (single isomer, unassigned) [Compound 138, N-(1-(3-(4-chlorophenyl)-1-cyanopentan-3-yl)-1H-indazol-4-yl)methanesulfonamide] as the molecule, how does the IC50 read?
The IC50 was under 0.1 µM.

Which IC50 does the source give for `CCC(c1ccc(C(F)(F)F)cc1)(C(C)O)n1ncc2c(NS(C)(=O)=O)cccc21` (single isomer, unassigned) [Compound 117, N-(1-(2-hydroxy-3-(4-(trifluoromethyl)phenyl)pentan-3-yl)-1H-indazol-4-yl)methanesulfonamide] here?
Its IC50 is under 0.1 µM.

For `COC(=O)C(c1ccc(F)cc1Cl)n1ccc2cc(F)ccc21` (stereo not shown) [Compound 13, methyl (2-chloro-4-fluorophenyl)(5-fluoro-1H-indol-1-yl)acetate], which IC50 is on record?
Its IC50 is 0.5 to 5 µM.

With `CCC(/C=C/C#N)(c1ccc(Cl)cc1)n1ncc2c(N(S(C)(=O)=O)S(C)(=O)=O)cc(F)cc21` (stereo not shown) [Compound 136, (E)-N-(1-(3-(4-chlorophenyl)-1-cyanopent-1-en-3-yl)-6-fluoro-1H-indazol-4-yl)-N-(methylsulfonyl)methanesulfonamide] as the molecule, how does the IC50 read?
The IC50 was under 0.1 µM.

For `CCC(CCC#N)(c1ccc(Cl)cc1)n1ncc2c(NS(C)(=O)=O)cc(F)cc21` (stereo not shown) [Compound 145, N-(1-(3-(4-chlorophenyl)-1-cyanopentan-3-yl)-6-fluoro-1H-indazol-4-yl)methanesulfonamide], which IC50 is on record?
The IC50 was under 0.1 µM.

For `CCC(C(=O)OC)(c1ccc(Cl)cc1Cl)n1ccc2c(NS(C)(=O)=O)cccc21` (stereo not shown) [Compound 30, Methyl 2-(2,4-dichlorophenyl)-2-{4-[(methylsulfonyl)amino]-1H-indol-1-yl}butanoate], which IC50 is on record?
The IC50 was 0.1 to 0.5 µM.

How did the IC50 turn out when `CCC(c1ccc(Cl)cc1)(c1noc(-c2ccc(F)cc2)n1)n1ccc2c(NS(C)(=O)=O)cccc21` (stereo not shown) [Compound 59, N-(1-{1-(4-chlorophenyl)-1-[5-(4-fluorophenyl)-1,2,4-oxadiazol-3-yl]propyl}-1H-indol-4-yl)methanesulfonamide] was run?
Its IC50 is under 0.1 µM.

For `CNC(=O)C(CC#N)(c1ccc(Cl)cc1)n1ccc2c(NS(C)(=O)=O)cccc21` (stereo not shown) [Compound 53, 2-(4-chlorophenyl)-3-cyano-N-methyl-2-{4-[(methylsulfonyl)amino]-1H-indol-1-yl}propanamide], which IC50 is on record?
Its IC50 is 0.1 to 0.5 µM.

`COC(=O)C(c1ccc(Cl)cc1)n1ncc2c(NS(C)(=O)=O)cccc21` (stereo not shown) [Compound 19, methyl (4-chlorophenyl){4-[(methylsulfonyl)amino]-1H-indazol-1-yl}acetate] was tested. Which IC50 did it give?
Its IC50 is 0.5 to 5 µM.

For `CCC(c1ccc(Cl)cc1)(n1ncc2c(NS(=O)(=O)N(C)C)cccc21)C(C)(C)O` (stereo not shown) [Compound 95, 3-(1-(3-(4-chlorophenyl)-2-hydroxy-2-methylpentan-3-yl)-1H-indazol-4-yl)-1,1-dimethyl-sulfonylurea], which IC50 is on record?
The IC50 was 0.1 to 0.5 µM.

`CCC(/C=C/C#N)(c1ccc(OC)cc1)n1ccc2c(NS(C)(=O)=O)cccc21` (stereo not shown) [Compound 128, (E)-N-(1-(1-cyano-3-(4-methoxyphenyl)pent-1-en-3-yl)-1H-indol-4-yl)methanesulfonamide] was tested. Which IC50 did it give?
The IC50 was under 0.1 µM.

`CCC(CO)(c1ccc(Cl)cc1)n1ncc2c(NS(C)(=O)=O)cccc21` (single isomer, unassigned) [Compound 88, N-(1-(2-(4-chlorophenyl)-1-hydroxybutan-2-yl)-1H-indazol-4-yl)methanesulfonamide] was tested. Which IC50 did it give?
Its IC50 is under 0.1 µM.

How did the IC50 turn out when `CS(=O)(=O)Nc1cccc2c1ccn2C(CC#N)(C(=O)NCc1ccccc1)c1ccc(Cl)cc1` (stereo not shown) [Compound 54, N-benzyl-2-(4-chlorophenyl)-3-cyano-2-{4-[(methylsulfonyl)amino]-1H-indol-1-yl}propanamide] was run?
Its IC50 is 0.1 to 0.5 µM.

`CCC(CCC#N)(c1ccc(C(F)(F)F)cc1)n1ncc2c(NS(C)(=O)=O)cccc21` (single isomer, unassigned) [Compound 141, N-(1-(1-cyano-3-(4-(trifluoromethyl)phenyl)pentan-3-yl)-1H-indazol-4-yl)methanesulfonamide] was tested. Which IC50 did it give?
Its IC50 is under 0.1 µM.

With `COC(=O)C(c1cccc(-c2cccc(OC)c2)c1)n1ccc2c(NS(C)(=O)=O)cccc21` (stereo not shown) [Compound 78] as the molecule, how does the IC50 read?
The IC50 was 0.5 to 5 µM.

`COC(=O)C(c1ccc(F)cc1Cl)n1ccc2cc(C#N)ccc21` (stereo not shown) [Compound 11, methyl (2-chloro-4-fluorophenyl)(5-cyano-1H-indol-1-yl)acetate] was tested. Which IC50 did it give?
Its IC50 is 0.5 to 5 µM.

For `CCC(c1ccc(Cl)cc1)(c1noc(-c2ccc(Cl)cc2)n1)n1ccc2c(NS(C)(=O)=O)cccc21` (stereo not shown) [Compound 60, N-(1-{1-(4-chlorophenyl)-1-[5-(4-chlorophenyl)-1,2,4-oxadiazol-3-yl]propyl}-1H-indol-4-yl)methanesulfonamide], which IC50 is on record?
Its IC50 is under 0.1 µM.
